This is an account of results in ChEMBL document CHEMBL1128691, “Functionally selective M1 muscarinic agonists. 3. Side chains and azacycles contributing to functional muscarinic selectivity among pyrazinylazacycles” (J Med Chem, 1995).

One experiment has as its system A9. The experiment in a line: Stimulating PI (phosphoinositol) hydrolysis in A9L-m1 cells. Type of experiment: functional, Mus musculus.
Experiment [1] deals with Mus musculus. The experiment in a line: Effect on salivation in mice, after intraperitoneal administration of 10 mg/kg, activity expressed as a score using a scale of 0-2. In kind it is functional.
The target of experiment [2] is T1, Muscarinic acetylcholine receptor M1 (Rattus norvegicus, UniProt P08482).
T1 sequence (P08482 whole entry): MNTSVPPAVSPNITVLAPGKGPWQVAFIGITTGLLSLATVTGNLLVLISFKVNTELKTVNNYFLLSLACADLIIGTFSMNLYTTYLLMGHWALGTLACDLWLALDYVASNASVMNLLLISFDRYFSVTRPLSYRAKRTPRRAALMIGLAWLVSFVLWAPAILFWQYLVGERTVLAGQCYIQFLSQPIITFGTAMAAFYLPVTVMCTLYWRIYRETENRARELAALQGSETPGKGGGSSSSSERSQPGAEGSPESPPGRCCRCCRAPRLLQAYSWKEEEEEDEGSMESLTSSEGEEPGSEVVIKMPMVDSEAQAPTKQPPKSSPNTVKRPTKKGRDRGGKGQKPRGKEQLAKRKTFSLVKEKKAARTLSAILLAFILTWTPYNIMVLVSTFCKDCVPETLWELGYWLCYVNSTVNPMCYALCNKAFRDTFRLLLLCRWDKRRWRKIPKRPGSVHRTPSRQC
The experiment in a line: Binding activity against muscarinic acetylcholine receptor M1 in rat brain, using [3H]OXO-M as the radioligand. Type of experiment: tissue-based.

The target of experiment [3] is T1, Muscarinic acetylcholine receptor M1. The experiment in a line: Binding activity against muscarinic acetylcholine receptor M1 in rat brain, using [3H]-Pz as the radioligand. In kind it is tissue-based.
For experiment [4], the system named is Mus musculus. The experiment in a line: Minimum effective dose after ip administration, to stimulate salivation in mice. In kind it is functional. The note with it: read-out: MED.

In the experiment with A9, `CCCCCCOc1nccnc1[C@@H]1CN2CCC1CC2` showed a Max of 33%. The Score in the experiment with Mus musculus [1] came out at 0. Further, the figures for the IC50 in experiment [2] and in experiment [3] were 0.0025 µM and 0.0037 µM, respectively.

Turning to `CCCCCCOc1nsnc1C1=CCCN(C)C1` [XANOMELINE], the Max in the experiment on A9 is listed as 55%. This molecule displayed a Score in the experiment with Mus musculus [1] of 0.

`CCCCCCOc1nccnc1[C@H]1CN2CCC1CC2` came in with a Max in the experiment on A9 of 46%. This molecule also displayed a Score in the experiment with Mus musculus [1] of 0. Moreover, the IC50 in experiment [2] is 0.0113 µM; in experiment [3], 0.0106 µM.

Consider `c1cnc(C2CN3CCC2CC3)cn1` (stereo not given), for which the Max in the experiment with A9 came to 80%. In addition, the minimal effective dose in the experiment with Mus musculus [4] came to 0.1 mg/kg. The Score in the experiment on Mus musculus [1] was found to be 1.4. The figures for the half-maximal inhibitory concentration (IC50) in experiment [2] and in experiment [3] were 0.004 µM and 0.074 µM, respectively.

On to `CCCCCCOc1nccnc1C1=CCCCN(C)C1`, for which the Max in the experiment on A9 was determined as 2%. Further, the Score in the experiment on Mus musculus [1] stood at 0. Besides, the values for the IC50 in experiment [2] and in experiment [3] were 0.117 µM and 0.026 µM, respectively.

With `CCCCOc1nccnc1C1CN2CCC1CC2` (stereo not given), the Max in the experiment on A9 amounted to 15%. The same molecule gave a Score in the experiment on Mus musculus [1] of 0. Further, the IC50 in experiment [2] was 0.005 µM; in experiment [3], 0.01 µM.

`C[N+](C)(C)CC#CCOC(=O)Nc1cccc(Cl)c1.[Cl-]` returned a Max in the experiment with A9 of 52%.

With `CCOc1nccnc1C1CN2CCC1CC2` (stereo not given), the Max with A9 stood at 1%. This molecule also had a Score in the experiment on Mus musculus [1] of 0. Moreover, the IC50 in experiment [2] was determined as 0.023 µM; in experiment [3] it was 0.038 µM.

With `Cc1nccnc1C1CN2CCC1CC2` (stereo not given), the Max in the experiment with A9 is reported as 4%. Besides, in the experiment with Mus musculus [4], the minimal effective dose is 3 mg/kg. The molecule further returned a Score in the experiment with Mus musculus [1] of 2. The IC50 turned out to be 0.023 µM in experiment [2] and 0.08 µM in experiment [3].

In turn, `CCCCCSc1nccnc1C1CN2CCC1CC2` (stereo not given) showed a Max with A9 of 7%. Besides, the Score in the experiment on Mus musculus [1] is listed as 0. Besides, the half-maximal inhibitory concentration (IC50) was determined as 0.0007 µM in experiment [2] and 0.0011 µM in experiment [3].

As to `Clc1nccnc1C1CN2CCC1CC2` (stereo not given), the Max in the experiment on A9 stood at 13%. Further, the minimal effective dose in the experiment with Mus musculus [4] was found to be 10 mg/kg. In the experiment on Mus musculus [1], this molecule gave a Score of 1.2. For the same molecule, the values for the IC50 in experiment [2] and in experiment [3] were 0.056 µM and 0.18 µM, respectively.

In the experiment with A9, `CCCCCOc1nccnc1C1CN2CCC1CC2` (stereo not given) returned a Max of 32%. Further, the Score in the experiment with Mus musculus [1] is 0.2. Besides, the results for the IC50 in experiment [2] and in experiment [3] were 0.006 µM and 0.007 µM, respectively.

With `CCCCCCOc1nccnc1C1=CCCCNC1`, in the experiment with A9, the Max is 5%. Besides, the Score with Mus musculus [1] is 0. The half-inhibitory concentration (IC50) in experiment [2] was 0.167 µM; in experiment [3], 0.044 µM.

For the molecule `Clc1cncc(C2CN3CCC2CC3)n1` (stereo not given), in the experiment with A9, the Max was 8%. Further, the minimal effective dose with Mus musculus [4] stood at 3 mg/kg. The same molecule gave a Score in the experiment on Mus musculus [1] of 1. Also, the IC50 was 0.0046 µM in experiment [2] and 0.0047 µM in experiment [3].

In the case of `CCCCCCOc1nccnc1C1CN2CCC1CC2` (stereo not given), the Max with A9 came to 40%. Also, the Score in the experiment with Mus musculus [1] stood at 0. Moreover, the IC50 in experiment [2] worked out at 0.0045 µM; in experiment [3], 0.006 µM.

`CCCCCCOc1nccnc1C1=CCCN(C)C1` showed a Max with A9 of 12%. The Score with Mus musculus [1] was 0.

In turn, `CCCCCCOc1nccnc1[C@H]1CN2CCC1C2` (stereo not given in full) registered a Max with A9 of 40%. Also, in the experiment on Mus musculus [4], the minimal effective dose was determined as 1 mg/kg. Further, the Score in the experiment on Mus musculus [1] is 1.6. The IC50 in experiment [2] was found to be 0.0056 µM; in experiment [3] it was 0.007 µM.

Molecule `COC(=O)C1=CCCN(C)C1` [ARECOLINE] returned a Max in the experiment on A9 of 73%. For the same molecule, the Score in the experiment on Mus musculus [1] was found to be 0.

As for `CCCCCCCOc1nccnc1C1CN2CCC1CC2` (stereo not given), the Max with A9 is recorded as 35%. For the same molecule, in the experiment with Mus musculus [1], the Score turned out to be 0. The values for the IC50 in experiment [2] and in experiment [3] were 0.01 µM and 0.013 µM, respectively.

For the molecule `CCCOc1nccnc1C1CN2CCC1CC2` (stereo not given), in the experiment on A9, the Max is reported as 4%. This molecule came in with a Score in the experiment on Mus musculus [1] of 0. The concentration for half-maximal inhibition (IC50) was found to be 0.009 µM in experiment [2] and 0.019 µM in experiment [3].

In the experiment on A9, `COc1nccnc1C1CN2CCC1CC2` (stereo not given) displayed a Max of 1%. In the experiment with Mus musculus [1], this molecule came in with a Score of 0. In addition, the 50% inhibitory concentration (IC50) in experiment [2] was found to be 0.072 µM; in experiment [3], 0.111 µM.

`CCCCCCOc1nccnc1[C@@H]1CN2CCCC1C2` (stereo not given in full) gave a Max with A9 of 4%. This molecule also returned a Score in the experiment with Mus musculus [1] of 0. The concentration for half-maximal inhibition (IC50) in experiment [2] is 0.18 µM; in experiment [3], 0.12 µM.

`CCCCSc1nccnc1C1CN2CCC1CC2` (stereo not given) showed a Max in the experiment on A9 of 5%. In addition, the Score in the experiment with Mus musculus [1] is 0. Moreover, the values for the concentration for half-maximal inhibition (IC50) in experiment [2] and in experiment [3] were 0.0005 µM and 0.0004 µM, respectively.

In the case of `CCCCCCSc1nccnc1C1CN2CCC1CC2` (stereo not given), in the experiment on A9, the Max was determined as 16%. In addition, the Score with Mus musculus [1] is given as 0. Moreover, the results for the IC50 in experiment [2] and in experiment [3] were 0.002 µM and 0.0022 µM, respectively.

`CCCCCCOc1nccnc1[C@H]1CN2CCCC1C2` (stereo not given in full): the Max in the experiment with A9 is 12%. The Score with Mus musculus [1] was 0. Further, the IC50 in experiment [2] worked out at 0.004 µM; in experiment [3], 0.0025 µM.

In turn, `CCCCCCOc1nccnc1[C@@H]1CN2CCC1C2` (stereo not given in full) yielded a Max in the experiment on A9 of 31%. Further, the Score in the experiment with Mus musculus [1] was determined as 0.6. The figures for the IC50 in experiment [2] and in experiment [3] were 0.046 µM and 0.058 µM, respectively.
